Data: patent US9320723B2, “Methods of treating thyroid eye disease” (University of Rochester, priority 2010, dated 2016)

Assays:
[1] = test system: human orbital fibroblasts; assay: HA ELISA of culture medium of orbital fibroblasts treated with prostaglandins or drugs; assay type: cell-based; conditions: 18 hours, strains OF1 and OF2
Excerpt: Orbital fibroblasts: Primary orbital fibroblasts were isolated from TED patients undergoing orbital decompression surgery. The protocols for orbital biopsy and blood sample, described below, were approved by the Internal Review Board and informed, written consent was obtained from all patients. […] Fibroblasts were characterized by their adherent morphology, expression of vimentin and types I and III collagen and absence of CD45, factor VIII or cytokeratin. Fibroblasts were used at the earliest passage possible (between passages 4 to 10). Human T cells: Lymphocytes were isolated from 60 ml of peripheral blood obtained during orbital decompression surgery. Whole blood was separated over a Ficoll-Paque Plus Gradient (Amersham Biosciences, Piscataway, N.J.) to obtain peripheral blood mononuclear cells. T cells were enriched using CD3/CD28 T cell Expander beads (Invitogen). […] After that, 50 U/ml of recombinant interleukin-2 (rIL-2) was added to the culture and incubated for another 2-3 days. On day 5, cells were diluted to a concentration of 0.5×10^6 cells/ml in medium containing 50 U/ml rIL-2 and incubated for an additional 3-7 days. Cellular purity was assessed using an anti-CD3-PE antibody (BD Biosciences, San Jose, Calif.) and analyzed on a FACSCalibur flow cytometer (BD Biosciences).
Aliquots of culture medium were removed at indicated time points, centrifuged (5 min, 8,000×g at 4° C.) and HA levels quantified by enzyme-linked immunosorbent assay (ELISA) according to the manufacturer's protocol (R&D Systems). Briefly, samples were incubated in HA-binding protein (HABP)-coated microwells, allowing HA in samples to react with the immobilized HABP. After the removal of unbound molecules by washing, biotinylated-HABP was added to the microwells. Following a second wash, streptavidin-conjugated to horseradish peroxidase was added. After the last wash, the chromogenic substrate was added and HA levels were determined using a Varioskan Flash plate reader (Thermo Fisher Scientific, Milford, Mass.).

[2] = test system: orbital fibroblast strains OF1 and OF2; assay: qRT-PCR of hyaluronidase mRNA (HYAL1-3); assay type: cell-based, human; conditions: 5 μM PGD2, 4 hours
Procedure: (§1) RNA was isolated from orbital fibroblasts or T cells using an RNeasy Mini kit (Qiagen). RNA was reverse transcribed to cDNA using iScript cDNA synthesis kit (Bio-Rad) and diluted 5-fold in RNase-free H2O. Forward and reverse primers for each gene are shown in Table I. RT-PCR: The PCR reaction was performed using Qiagen Fast Cycling PCR kit for 30 cycles in a Bio-Rad thermal cycler. The PCR product was visualized on a 5% acrylamide gel stained with ethidium bromide. Amplifications without reverse transcriptase were carried out as negative controls. qRT-PCR: qRT-PCR was performed in a Bio-Rad iCycler containing B-R SYBR Green SuperMix for IQ (Quanta Biosciences, Gaithersburg, Md.). Efficiency of the amplification was determined to be >90%.
(§2) Amplification of 7S ribosomal RNA was carried out for each cDNA (in triplicate) for normalization. Threshold cycle number (Ct) of amplification in each sample was determined by Bio-Rad software and the relative mRNA abundance was calculated as the Ct for amplification of a gene-specific cDNA minus average Ct for 7S, expressed as a power of 2; i.e., 2^ΔCt.

[3] = test system: human orbital fibroblasts; assay: qRT-PCR of HAS mRNA after PGD2 or BW245C; assay type: cell-based; conditions: 5 μM PGD2, 2 hours
Procedure: as §1, §2

[4] = test system: human orbital fibroblasts (OF1 and OF2); assay: Agarose gel electrophoresis of HA in conditioned media; assay type: cell-based; conditions: 5 μM PGD2, 18 hours
Procedure: Fibroblasts were cultured to confluence in 10 cm^2 dishes in RPMI containing 10% FBS, followed by RPMI with 2% FBS for 3 days. Fibroblasts were then treated with 5 μM PGD2 or control (DMSO) for 18 hours. Cell culture supernatant was centrifuged (5 min at 8,000×g at 4° C.) and half of the sample digested with 1 TRU/ml Streptomyces hyaluronidase (Sigma) at 37° C. for 4 hours; the remainder of the sample was mock-digested. Following digestion with proteinase K (120 μg/ml) (Qiagen, Valencia, Calif.) at 37° C. for 4 hours, the samples were concentrated using Vivaspin 10,000 Da cut-off ultrafiltration spin column (Sartorius Stedim Biotech, Goettingen, Germany), washed with PBS and analyzed by 1% agarose electrophoresis. Select-HA HiLadder (Hyalose LLC, Oklahoma City, Okla.) and blue dextran (Sigma; molecular weight 2×10^6 Da) were also run as standards. The gel was stained with 0.005% Stains-All (Sigma) in 50% ethanol overnight at room temperature before being scanned on an HP scanner.

orbital fibroblasts [5] = assay: Measurement of intracellular cAMP (TR-FRET immunoassay); assay type: cell-based, human; conditions: PGD2 5 μM, BW245C 10 μM, up to 60 minutes
Procedure: cAMP levels were quantified using a time-resolved fluorescence resonance energy transfer (TR-FRET) immunoassay from Perkin Elmer (Waltham, Mass.) according to the manufacturer's protocol. Briefly, orbital fibroblasts were detached with a non-enzymatic cell dissociation solution (Versene, Invitrogen) and re-suspended in Stimulation Buffer (pH 7.4; 1×HBSS buffer containing 5 mmol/L HEPES buffer and 0.01%-0.1% BSA) containing 0.5 mM IBMX and labeled with the Alexa Fluor® 647-labeled anti-cAMP antibody. Finally, the cells were incubated with drugs at the indicated times. Following addition of the detection buffer, the amount of cAMP signal was measured.

[6] = test system: human orbital fibroblasts; conditions: previously reported (Feldon et al. 2006); cited from earlier work
[7] = test system: orbital fibroblasts co-cultured with HMC-1 cells; assay: Co-culture of HMC-1 mast cells with orbital fibroblasts, HA ELISA; assay type: cell-based, human; conditions: HMC-1 cells pretreated with HQL-79, ratio 20:1, compared to vehicle
Procedure: HMC-1 mast cells were allowed to proliferate in Iscove's Modified Dulbecco's Medium (IMDM) enriched with 5% FBS. Co-cultures were initiated by introducing HMC-1 cells to confluent cultures of fibroblasts as previously described (24). Mast cells were washed with RPMI-1640 medium (0.5% FBS) once before addition to the fibroblasts (1:1 ratio, unless otherwise specified). After 4 hours, the media and HMC-1 cells were removed by gently rinsing in PBS and fresh RPMI-1640 medium (0.5% FBS) was used to cover the cells. Alternatively, fibroblasts and mast cells were co-cultured in a transwell system (0.4 μm; Greiner Bio-one, New York, N.Y.) with fibroblasts being cultured on the bottom and the mast cells in the top chamber. The ratio of mast cells to fibroblasts was varied from 5:1 to 20:1.
Aliquots of culture medium were removed at indicated time points, centrifuged (5 min, 8,000×g at 4° C.) and HA levels quantified by enzyme-linked immunosorbent assay (ELISA) according to the manufacturer's protocol (R&D Systems). Briefly, samples were incubated in HA-binding protein (HABP)-coated microwells, allowing HA in samples to react with the immobilized HABP. […] After the last wash, the chromogenic substrate was added and HA levels were determined using a Varioskan Flash plate reader (Thermo Fisher Scientific, Milford, Mass.).

HMC-1 cells = assay: Measurement of PGD2 produced by mast cells (PGD2-MOX EIA); assay type: cell-based, human; conditions: HQL-79 100 μM 60 minutes, then A23187
Procedure: HMC-1 cells (1×10^6/well) were seeded into 6-well plates and cultured in IMDM medium with 5% FBS in the absence or presence of HQL-79 (H-PGDS inhibitor, 100 μM) at 37° C. for 60 minutes. The cells were then washed and resuspended in RPMI 1640 medium with 0.5% FBS. After 2 hours incubation, the cells were stimulated with 10 μM calcium ionophore A23187 for 30 minutes. The culture media were collected and PGD2 in the supernatants was quantified by PGD2-MOX EIA kits (Cayman Chemical).

[8] = test system: human orbital fibroblasts; assay: qRT-PCR of HAS mRNA after TGF-β1 with or without Pio or Rosi; assay type: cell-based; conditions: 2 ng/ml TGF-β1, 6 hours
Excerpt: RNA was isolated from orbital fibroblast strains using the RNeasy Mini kit according to the manufacturer's protocol (Qiagen, Valencia, Calif.) and reverse transcripted to cDNA using iScript cDNA synthesis kit (Bio-Rad, Hercules, Calif.). Primers for human HAS1, 2, 3 and 7S as well as qRT-PCR method to detect relative abundance of mRNA are identified supra. Primers for human PPARγ1 (NM138711) and PPARγ 2 (NM015869) mRNA were 5′-AAAGAAGCCGA-CACTAAACC-3′ (SEQ ID NO:3) (sense), 5′-CTTCCATTACGG-AGAGATCC-3′ (SEQ ID NO:4) (antisense) and, 5′-GCGATTC-CTTCACTGATAC-3′ (SEQ ID NO:5) (sense), 5′-CTTCCATT-ACGGAGAGATCC-3′ (SEQ ID NO:6) (antisense), respectively.

[9] = test system: human orbital fibroblasts; assay: Quantitation of secreted, pericellular and intracellular HA by ELISA, TGF-β1 treatment; assay type: cell-based
Procedure: Confluent monolayers of orbital fibroblasts were serum starved in 0.5% FBS RPMI-1640 medium for three days and pretreated with different concentrations of Pio or Rosi for 1 hour and then treated with or without 2 ng/ml TGF-β1 for 24 hours. After treatments, an aliquot of culture medium (secreted HA) was removed and centrifuged at 8,000×g at 4° C. for 5 minutes and the supernatant was saved for later analysis. The cells were washed twice with PBS and treated with 0.25% trypsin-EDTA solution (GIBCO, Invitrogen) at 37° C. for 5 minutes, the reaction was stopped by addition of culture medium and cell number was determined using a hemocytometer. The cells were then centrifuged and the supernatant was collected and incubated at 100° C. for 10 minutes to inactivate trypsin activity. This supernatant was saved for pericellular HA detection. The cell pellet was washed with PBS once and digested with 120 μg/ml proteinase K in 0.1% SDS/0.1 M Tris-HCl (pH 7.6) at 37° C. for 1 hour, and proteinase K was inactivated by incubation at 100° C. for 10 min. The cell lysate was centrifuged and supernatant analyzed for intracellular HA.
The amount of HA in each extract (secreted HA, pericellular HA and intracellular HA) was measured by ELISA based on the specific interaction of HA with HA binding protein (HABP). The HA detection kit was purchased from R&D system (Minneapolis, Minn.). Briefly, diluted samples were incubated in HABP-coated microwells, allowing HA present in samples to react with the immobilized HABP. After extensive washing, biotinylated HABP was added to the microwells to form complexes with bound HA. Following another round of washing, streptavidin conjugated horseradish peroxidase was added. After a brief incubation period and washing, chromogenic substrate was added and HA levels were determined using a Varioskan Flash plate reader (Thermo Fisher Scientific, Milford, Mass.). A fraction of the samples were pretreated with Streptomyces hyaluronidase (2 U/ml at 37° C. for 2 hour) before subjected to the ELISA assay as a negative control. Furthermore, an additional 50 ng/ml (final concentration) of free soluble HA was added to a fraction of the cell lysate samples to confirm that there are no inhibitory factors present and that the assays show the expected additivity when a known amount of exogenous HA is included.

orbital fibroblasts [10] = assay: Immunofluorescence staining of HA with biotinylated HABP; assay type: cell-based, human; conditions: 2 ng/ml TGF-β1, 24 hours
Procedure: Orbital fibroblasts were cultured in 8-chamber slides (BD REF354108) and fixed in room temperature 3% paraformaldehyde in PBS and stained with 1 μg/ml biotinylated HABP (Seikagaku, Cape Cod) followed by Cy3-conjugated streptavidin (Jackson laboratories, West Grove, Pa.). F-actin was stained with Phalloidin (Molecular Probes). In some cultures, orbital fibroblasts were treated with Streptomyces hyaluronidase prior to staining T cells were stained with an anti-CD3 monoclonal antibody (clone UCHT, SouthernBiotech, Birmingham, Ala.) followed by a goat anti-mouse antibody labeled with Alexa-488 (Molecular Probes). DAPI (10 μg/ml, Anaspec, San Jose, Calif.) was used for nuclear staining.

[11] = test system: human peripheral blood T cells adhering to orbital fibroblasts; assay: T cell adhesion assay; assay type: cell-based; conditions: fibroblasts treated with 2 ng/ml TGF-β1, 24 hours
Procedure: Confluent orbital fibroblasts in a 96-well plate were serum starved and incubated with different concentrations of Pio or Rosi treated with or without 2 ng/ml TGF1 for 24 hours. In some cultures, orbital fibroblasts were treated with Streptomyces hyaluronidase (100 mU/ml at 37° C. for 1 hour) prior to the adhesion assay to deplete endogenous HA. Adhesion Test. Immediately before the adhesion assay, the conditioned medium of orbital fibroblasts was removed to eliminate treatments and secreted ECM. 1×10^5/well of Calcein AM labeled T cells were added to a 96-well plate with a confluent orbital fibroblast monolayer and allowed to adhere for 90 min at 4° C. as previously described. Plates were washed three times with the addition of 200 ul of PBS followed by plate inversion and gentle tapping to remove the wash solution. Fluorescence was measured with an excitation of 485 nm and detection of 535 nm, in a Varioskan Flash plate reader (Thermo Electron Corporation).

[12] = 2 ng/ml TGF-β1, 24 hours, strain #1, compared to vehicle

## CCCCC[C@H](O)/C=C/[C@H]1C(=O)C[C@H](O)[C@@H]1C/C=C\CCCC(=O)O [PGD2]
[1]
  concentration yielding the largest induction of HA: 5 µM
[1]; increasing concentrations
  HA synthesis (HA ELISA): significantly increased HA synthesis by both fibroblast strains in a dose-dependant manner
[2]; strain OF1
  HYAL1, HYAL2 and HYAL3 mRNA: significant induction in HYAL1, HYAL2 and HYAL3 mRNA
[2]; strain OF2
  hyaluronidase mRNA expression: failed to significantly increase hyaluronidase mRNA expression
[3]
  HAS1, HAS2 and HAS3 mRNA: the mRNA for all three HAS isoforms increased significantly
[3]; compared to time 0
  increase in HAS1 mRNA: 2807±213
[4]
  HA in conditioned media (agarose gel): increased HA compared with vehicle
Orbital fibroblasts [5]
  intracellular cAMP production: significantly increased intracellular cAMP production within 15 to 30 minutes
[6]
  adipogenesis in human orbital fibroblasts: induce adipogenesis

## c1ccc(C(OC2CCN(CCCc3nnn[nH]3)CC2)c2ccccc2)cc1 [HQL-79, 4-benzhydryloxy-1-[3-(1H-tetrazol-5-yl)-propyl]-piperidine]
[7]
  production of HA by orbital fibroblasts in transwell co-culture: significantly attenuated the production of HA by orbital fibroblasts
HMC-1 cells
  level of PGD2 in activated HMC-1 cells: significantly reduced the level of PGD2 in activated HMC-1 cells

## TGF-β1: Recombinant human TGF-β1 purchased from Calbiochem
[8]
  HAS3 mRNA levels: remained unchanged
  increase of HAS1 mRNA levels: about 50 fold
  increase of HAS2 mRNA levels: ~6 fold
[9]; 2 ng/ml TGF-β1, 24 hours
  intracellular HA levels: had no effect on intracellular HA levels
[9]; [12]
  increase of pericellular HA levels: 8.34±1.33 fold
  increase of secreted HA levels: 12.16±0.15 fold
[9]; TGF-β1 mediated
  share of newly synthesized HA secreted into the ECM: about 70%
[9]; fibroblasts treated with TGF-β1, strain #1
  secreted HA compared with pericellular HA: 2.31±0.36 fold
Orbital fibroblasts [10]
  HA staining (immunofluorescence): HA staining is more pronounced and forms microvillus-like protrusions
[11]
  adhesion of T cells to orbital fibroblasts: significantly increased compared to untreated control fibroblasts
